From patent US8952024B2, “Herbicidal pyrimidone derivatives” (E I du Pont de Nemours and Company, priority 2009, dated 2015)

Experiments:
Assay type in all cases: in vivo
[1] = tested on: ducksalad (Heteranthera limosa); assay: Test B flooded paddy test; settings: for Plant response rating, Flood, Ducksalad: 250 g ai/ha, flooded paddy test, visual rating on 0 to 100 scale (0 no effect, 100 complete control) after 13 to 15 days; for Plant response rating, Ducksalad: Flood (flooded paddy test), 13 to 15 days; for Ducksalad plant response rating: Flood, scale 0 to 100 (0 no effect, 100 complete control)
How it was run: (§1)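 Flooded-pot test: water raised to 3 cm above soil when treating, compound put in the water, level unchanged thereafter. Plants were at 2 leaves. Readout after 13 to 15 days, visual, relative to controls; 0 signifies no effect and 100 complete control.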

[2] = tested on: barnyardgrass (Echinochloa crus-galli); assay: Test B flooded paddy test; settings: for Plant response rating, Flood, Barnyardgrass: 250 g ai/ha, flooded paddy test, visual rating on 0 to 100 scale (0 no effect, 100 complete control) after 13 to 15 days; for Plant response rating, Barnyardgrass: Flood (flooded paddy test), 13 to 15 days; for Barnyardgrass plant response rating: Flood, scale 0 to 100 (0 no effect, 100 complete control)
How it was run: as §1

[3] = tested on: umbrella sedge (Cyperus difformis); assay: Test B flooded paddy test; settings: for Plant response rating, Flood, Sedge, Umbrella: 250 g ai/ha, flooded paddy test, visual rating on 0 to 100 scale (0 no effect, 100 complete control) after 13 to 15 days; for Plant response rating, Sedge, Umbrella: Flood (flooded paddy test), 13 to 15 days; for Sedge, Umbrella plant response rating: Flood, scale 0 to 100 (0 no effect, 100 complete control)
How it was run: as §1

rice (Oryza sativa) = assay: Test B flooded paddy test; settings: for Plant response rating, Flood, Rice: 250 g ai/ha, flooded paddy test, visual rating on 0 to 100 scale (0 no effect, 100 complete control) after 13 to 15 days; for Plant response rating, Rice: Flood (flooded paddy test), 13 to 15 days; for Rice plant response rating: Flood, scale 0 to 100 (0 no effect, 100 complete control)
How it was run: as §1

[4] = tested on: velvetleaf (Abutilon theophrasti); assay: Test A pre-/postemergence plant response
How it was run: (§2)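 Each species was treated preemergence via directed soil spray and postemergence at the one- to two-leaf stage, with compounds formulated in a non-phytotoxic solvent plus surfactant. Visual injury relative to untreated controls was rated after about ten days on a 0–100 scale.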

[5] = tested on: giant foxtail (Setaria faberii); assay: Test A pre-/postemergence plant response
How it was run: as §2

[6] = tested on: wheat (Triticum aestivum); assay: Test A pre-/postemergence plant response
How it was run: as §2

corn (Zea mays) = assay: Test A pre-/postemergence plant response
How it was run: as §2

[7] = tested on: pigweed (Amaranthus retroflexus); assay: Test A pre-/postemergence plant response
How it was run: as §2

[8] = tested on: morningglory (Ipomoea spp.); assay: Test A pre-/postemergence plant response
How it was run: as §2

[9] = tested on: barnyardgrass (Echinochloa crus-galli); assay: Test A pre-/postemergence plant response
How it was run: as §2

[10] = tested on: large crabgrass (Digitaria sanguinalis); assay: Test A pre-/postemergence plant response
How it was run: as §2

[11] = 31 g ai/ha, scale of 0 to 100 where 0 is no effect and 100 is complete control
[12] = 62 g ai/ha, scale 0 to 100, 0 is no effect, 100 is complete control
[13] = 125 g ai/ha, scale 0 to 100, 0 is no effect, 100 is complete control
[14] = Postemergence, 125 g ai/ha, visual injury, 0 to 100 scale (0 no effect, 100 complete control), approx. ten days
[15] = Postemergence, 500 g ai/ha, 0 to 100 scale, 0 = no effect, 100 = complete control, approx. ten days
[16] = Preemergence, 125 g ai/ha, 0 to 100 scale, 0 = no effect, 100 = complete control
[17] = Preemergence, 500 g ai/ha, visual injury, 0 to 100 scale (0 no effect, 100 complete control), approx. ten days
[18] = 62 g ai/ha, scale of 0 to 100 where 0 is no effect and 100 is complete control
[19] = Postemergence, 125 g ai/ha, 0 to 100 scale where 0 is no effect and 100 is complete control
[20] = Postemergence, 500 g ai/ha, visual injury, 0 to 100 scale (0 no effect, 100 complete control), approx. ten days
[21] = Preemergence, 500 g ai/ha, 0 to 100 scale, 0 = no effect, 100 = complete control

Cc1cccc(-n2c(-c3ccccc3)ncc(C(=O)C3=C(O)CCCC3=O)c2=O)c1 [Compound 18]
Plant response rating, Flood, Ducksalad [1]: 90 | Plant response rating, Ducksalad [1, 11]: 20 | Plant response rating, Ducksalad [1, 12]: 50 | Plant response rating, Ducksalad [1, 13]: 65 | Plant response rating, Flood, Barnyardgrass [2]: 50 | Plant response rating, Barnyardgrass [2, 11]: 10 | Plant response rating, Barnyardgrass [2, 12]: 20 | Plant response rating, Barnyardgrass [2, 13]: 20 | Plant response rating, Flood, Sedge, Umbrella [3]: 85 | Plant response rating, Sedge, Umbrella [3, 11]: 0 | Plant response rating, Sedge, Umbrella [3, 12]: 30 | Plant response rating, Sedge, Umbrella [3, 13]: 50 | Plant response rating, Flood, Rice (rice (Oryza sativa)): 25 | Plant response rating, Rice (rice (Oryza sativa); [11]): 10 | Plant response rating, Rice (rice (Oryza sativa); [12]): 15 | Plant response rating, Rice (rice (Oryza sativa); [13]): 25 | Velvetleaf plant response rating [4, 14]: 100 | Plant response rating, Velvetleaf [4, 15]: 100 | Plant response rating, Velvetleaf [4, 16]: 30 | Plant response rating, Velvetleaf [4, 17]: 100 | Foxtail, Giant plant response rating [5, 14]: 40 | Plant response rating, Foxtail, Giant [5, 15]: 90 | Plant response rating, Foxtail, Giant [5, 16]: 40 | Plant response rating, Foxtail, Giant [5, 17]: 90 | Wheat plant response rating [6, 14]: 0 | Plant response rating, Wheat [6, 15]: 50 | Plant response rating, Wheat [6, 16]: 0 | Plant response rating, Wheat [6, 17]: 40 | Corn plant response rating (corn (Zea mays); [14]): 0 | Plant response rating, Corn (corn (Zea mays); [15]): 20 | Plant response rating, Corn (corn (Zea mays); [16]): 0 | Plant response rating, Corn (corn (Zea mays); [17]): 20 | Pigweed plant response rating [7, 14]: 100 | Plant response rating, Pigweed [7, 15]: 100 | Plant response rating, Pigweed [7, 16]: 70 | Plant response rating, Pigweed [7, 17]: 100 | Morningglory plant response rating [8, 14]: 40 | Plant response rating, Morningglory [8, 15]: 100 | Plant response rating, Morningglory [8, 16]: 20 | Plant response rating, Morningglory [8, 17]: 70 | Barnyardgrass plant response rating [9, 14]: 20 | Plant response rating, Barnyardgrass [9, 15]: 90 | Plant response rating, Barnyardgrass [9, 16]: 10 | Plant response rating, Barnyardgrass [9, 17]: 100 | Crabgrass, Large plant response rating [10, 14]: 30 | Plant response rating, Crabgrass, Large [10, 15]: 80 | Plant response rating, Crabgrass, Large [10, 16]: 60 | Plant response rating, Crabgrass, Large [10, 17]: 100

CCCn1c(-c2cc(F)cc(F)c2)ncc(C(=O)C2=C(O)CC(C)(C)CC2=O)c1=O [Compound 224]
Plant response rating, Flood, Ducksalad [1]: 75 | Plant response rating, Ducksalad [1, 18]: 0 | Plant response rating, Ducksalad [1, 13]: 0 | Ducksalad plant response rating ([1]; 31 g ai/ha): 0 | Plant response rating, Flood, Barnyardgrass [2]: 30 | Plant response rating, Barnyardgrass [2, 18]: 0 | Plant response rating, Barnyardgrass [2, 13]: 0 | Barnyardgrass plant response rating ([2]; 31 g ai/ha): 0 | Plant response rating, Flood, Sedge, Umbrella [3]: 75 | Plant response rating, Sedge, Umbrella [3, 18]: 0 | Plant response rating, Sedge, Umbrella [3, 13]: 0 | Sedge, Umbrella plant response rating ([3]; 31 g ai/ha): 0 | Plant response rating, Flood, Rice (rice (Oryza sativa)): 60 | Plant response rating, Rice (rice (Oryza sativa); [18]): 0 | Plant response rating, Rice (rice (Oryza sativa); [13]): 0 | Rice plant response rating (rice (Oryza sativa); 31 g ai/ha): 0 | Plant response rating, Velvetleaf [4, 19]: 100 | Velvetleaf plant response rating [4, 20]: 100 | Plant response rating, Velvetleaf [4, 16]: 50 | Plant response rating, Velvetleaf [4, 21]: 80 | Plant response rating, Foxtail, Giant [5, 19]: 70 | Foxtail, Giant plant response rating [5, 20]: 100 | Plant response rating, Foxtail, Giant [5, 16]: 20 | Plant response rating, Foxtail, Giant [5, 21]: 70 | Plant response rating, Wheat [6, 19]: 0 | Wheat plant response rating [6, 20]: 60 | Plant response rating, Wheat [6, 16]: 0 | Plant response rating, Wheat [6, 21]: 30 | Plant response rating, Corn (corn (Zea mays); [19]): 10 | Corn plant response rating (corn (Zea mays); [20]): 50 | Plant response rating, Corn (corn (Zea mays); [16]): 20 | Plant response rating, Corn (corn (Zea mays); [21]): 20 | Plant response rating, Pigweed [7, 19]: 100 | Pigweed plant response rating [7, 20]: 100 | Plant response rating, Pigweed [7, 16]: 70 | Plant response rating, Pigweed [7, 21]: 100 | Plant response rating, Morningglory [8, 19]: 100 | Morningglory plant response rating [8, 20]: 100 | Plant response rating, Morningglory [8, 21]: 30 | Plant response rating, Barnyardgrass [9, 19]: 90 | Barnyardgrass plant response rating [9, 20]: 90 | Plant response rating, Barnyardgrass [9, 16]: 0 | Plant response rating, Barnyardgrass [9, 21]: 90 | Plant response rating, Crabgrass, Large [10, 19]: 70 | Crabgrass, Large plant response rating [10, 20]: 100 | Plant response rating, Crabgrass, Large [10, 16]: 70 | Plant response rating, Crabgrass, Large [10, 21]: 100

Cc1ccc(F)cc1-n1c(-c2cccc(Br)c2)ncc(C(=O)C2=C(O)CCCC2=O)c1=O [Compound 154]
Plant response rating, Flood, Ducksalad [1]: 100 | Plant response rating, Ducksalad [1, 18]: 50 | Plant response rating, Ducksalad [1, 13]: 70 | Ducksalad plant response rating ([1]; 31 g ai/ha): 0 | Plant response rating, Flood, Barnyardgrass [2]: 40 | Plant response rating, Barnyardgrass [2, 18]: 0 | Plant response rating, Barnyardgrass [2, 13]: 0 | Barnyardgrass plant response rating ([2]; 31 g ai/ha): 0 | Plant response rating, Flood, Sedge, Umbrella [3]: 100 | Plant response rating, Sedge, Umbrella [3, 18]: 95 | Plant response rating, Sedge, Umbrella [3, 13]: 95 | Sedge, Umbrella plant response rating ([3]; 31 g ai/ha): 0 | Plant response rating, Flood, Rice (rice (Oryza sativa)): 75 | Plant response rating, Rice (rice (Oryza sativa); [18]): 0 | Plant response rating, Rice (rice (Oryza sativa); [13]): 60 | Rice plant response rating (rice (Oryza sativa); 31 g ai/ha): 0 | Plant response rating, Velvetleaf [4, 19]: 100 | Plant response rating, Velvetleaf [4, 15]: 100 | Plant response rating, Velvetleaf [4, 16]: 40 | Plant response rating, Velvetleaf [4, 21]: 80 | Plant response rating, Foxtail, Giant [5, 19]: 60 | Plant response rating, Foxtail, Giant [5, 15]: 90 | Plant response rating, Foxtail, Giant [5, 16]: 10 | Plant response rating, Foxtail, Giant [5, 17]: 30 | Plant response rating, Wheat [6, 19]: 0 | Plant response rating, Wheat [6, 15]: 0 | Plant response rating, Wheat [6, 16]: 0 | Plant response rating, Wheat [6, 21]: 0 | Plant response rating, Corn (corn (Zea mays); [19]): 0 | Plant response rating, Corn (corn (Zea mays); [15]): 10 | Plant response rating, Corn (corn (Zea mays); [16]): 0 | Plant response rating, Corn (corn (Zea mays); [17]): 0 | Plant response rating, Pigweed [7, 19]: 60 | Plant response rating, Pigweed [7, 15]: 100 | Plant response rating, Pigweed [7, 16]: 30 | Plant response rating, Pigweed [7, 17]: 80 | Plant response rating, Morningglory [8, 19]: 30 | Plant response rating, Morningglory [8, 15]: 70 | Plant response rating, Morningglory [8, 16]: 0 | Plant response rating, Morningglory [8, 17]: 0 | Plant response rating, Barnyardgrass [9, 19]: 90 | Plant response rating, Barnyardgrass [9, 15]: 90 | Plant response rating, Barnyardgrass [9, 16]: 0 | Plant response rating, Barnyardgrass [9, 17]: 40 | Plant response rating, Crabgrass, Large [10, 19]: 70 | Plant response rating, Crabgrass, Large [10, 15]: 100 | Plant response rating, Crabgrass, Large [10, 16]: 10 | Plant response rating, Crabgrass, Large [10, 17]: 50
